Biological target: T1, full length active recombinant SYK enzyme (Homo sapiens, UniProt P43405)
T1 construct: full length active recombinant SYK enzyme (Millipore, Calif.); purchased Millipore
Test: Inhibition of Syk tyrosine phosphorylation activity (LANCE TR-FRET kinase assay)
Type: biochemical
Details: activity in the Syk assays, class symbols
Excerpt: The in vitro and in vivo human Syk activities of the inventive compounds can be determined by various procedures known in the art, such as a test for their ability to inhibit the activity of human plasma Syk. […] The IC50 value is the concentration (in nM) of the compound required to provide 50% inhibition of human Syk proteolytic activity.
An in vitro assay for detecting and measuring inhibition activity against Syk is as follows:
Inhibition of Syk Tyrosine Phosphorylation Activity
Potency of candidate molecules for inhibiting Syk tyrosine phosphorylation activity is assessed by measuring the ability of a test compound to inhibit Syk-mediated tyrosine phosphorylation of a Syk-specific substrate.
SYK tyrosine phosphorylation activity is measured using the LANCE™ Technology developed by Perkin Elmer Life and Analytical Sciences (Boston, Mass.). LANCE™ refers to homogeneous time resolved fluorometry applications using techniques such as time-resolved fluorescence resonance energy transfer assay (TR-FRET) (see generally for procedures in Perkin Elmer Application Note-How to Optimize a Tyrosine Kinase Assay Using Time Resolved Fluorescence-Based LANCE Detection, wwww.perkinelmer.com/lifesciences). The assay principle involves detection of a phosphorylated substrate using energy transfer from a phosphospecific europium-labeled antibody to streptavidin-allophycocyanin as an acceptor.
To test the ability of candidate molecules to inhibit SYK tyrosine phosphorylation activity, molecules are reconstituted in 30% DMSO and serially diluted 1:3 with the final dilution containing DMSO in the absence of the candidate molecule. The final DMSO concentration in the assay is 3%. Kinase assays are performed as a two part reaction. The first reaction is a kinase reaction and which comprises of a candidate molecule, full length active recombinant SYK enzyme (Millipore, Calif.) and biotin-labeled SYK-specific substrate biotin-DEEDYESP-OH. The second reaction involves termination of the kinase reaction and the simultaneous addition of the detection reagents-europium-labeled anti-phosphotyrosine reagent (Eu-W1024-PY100, Perkin Elmer, Boston, Mass.) and Streptavidin-Allophycocyanin detection reagent (SA-APC, Prozyme, CA). The kinase reaction is performed in a black U-bottom 96-well microtitre plate. The final reaction volume is 50 μL and contains a final concentration of 1 nM active SYK enzyme, 550 nM SYK-substrate, and 100 μM ATP diluted in a buffer containing 50 mM Tris pH 7.5, 5 mM MgCl2, and 1 mM DTT. The reaction is allowed to proceed for 1 hour at room temperature. The quench buffer contains 100 mM Tris pH 7.5, 300 mM NaCl2, 20 mM EDTA, 0.02% Brij35, and 0.5% BSA. The detection reagents are added to the reaction mixture at the following dilutions-1:500 for Eu-W1024-PY100 and 1:250 for SA-APC. The kinase reaction is terminated by the addition of 50 μL quench buffer containing the detection reagents. The detection is allowed to proceed for 1 hr at room temperature. Detection of the phosphorlated substrate in the absence and presence of inhibitors is measured in the TR-FRET instrument, Analyst HT (Molecular Probes, Sunnyvale, Calif.) and the condition for measurements are set up using CriterionHost Release 2.0 (Molecular Probes, Sunnyvale, Calif.). The settings used are a follows: excitation 360 nm, emission 665-7.5 nm, beam splitter 350 nm 50/50, flash 100 pulses, delay 60 us, integration 400 us, z-height 2 mm. Inhibition of SYK-tyrosine kinase activity is calculated as the maximum response observed in the presence of inhibitor, compared to that in the absence of inhibitor. IC50s were derived by non-linear regression analysis.

| Structure (SMILES) | IC50 |
| --- | --- |
| NC(=O)c1ncc(N[C@@H]2CCCC[C@@H]2N)nc1Nc1cc(-n2ccnn2)cc(-n2ccnn2)c1 [Example 432, 5-(((1R,2S)-2-aminocyclohexyl)amino)-3-((3,5-di(1H-1,2,3-triazol-1-yl)phenyl)amino)pyrazine-2-carboxamide] | 1 to 10 nM |
| CC[C@@H](Nc1cnc(C(N)=O)c(Nc2cc(C)ns2)n1)C(N)=O [Example 373, (R)-5-(1-amino-1-oxobutan-2-ylamino)-3-(3-methylisothiazol-5-ylamino)pyrazine-2-carboxamide] | 1 to 10 nM |
| NC(=O)c1ncc(N[C@@H]2CCCC[C@@H]2N)nc1Nc1cc(N2CCOCC2)cc(-n2cccn2)c1 [Example 431, 5-(((1R,2S)-2-aminocyclohexyl)amino)-3-((3-morpholino-5-(1H-pyrazol-1-yl)phenyl)amino)pyrazine-2-carboxamide] | 1 to 10 nM |
| CCc1cc(Nc2nc(N[C@@H]3CCCC(F)(F)[C@@H]3N)cnc2C(N)=O)sn1 [Example 226, 5-((1R,2R)-2-amino-3,3-difluorocyclohexylamino)-3-(3-ethylisothiazol-5-ylamino)pyrazine-2-carboxamide] | 10 to 100 nM |
| CC[C@@H](Nc1cnc(C(N)=O)c(Nc2cc(COC)ns2)n1)C(N)=O [Example 257, (R)-5-(1-amino-1-oxobutan-2-ylamino)-3-(3-(methoxymethyl)isothiazol-5-ylamino)pyrazine-2-carboxamide] | 10 to 100 nM |
| NC(=O)c1ncc(N[C@@H]2CCCC[C@@H]2N)nc1Nc1cccc2ncccc12 [Example 436, 5-(((1R,2S)-2-aminocyclohexyl)amino)-3-(quinolin-5-ylamino)pyrazine-2-carboxamide] | < 1 nM |
| Cc1cncc(Nc2nc(N[C@H](CC3CC3)C(N)=O)cnc2C(N)=O)c1 [Example 99, (R)-5-(1-amino-3-cyclopropyl-1-oxopropan-2-ylamino)-3-(5-methylpyridin-3-ylamino)pyrazine-2-carboxamide] | 1 to 10 nM |
| NC(=O)c1ncc(N[C@@H]2CCCC(F)(F)[C@@H]2N)nc1Nc1ccc2ncncc2c1 [Example 405, 5-((1R,2R)-2-amino-3,3-difluorocyclohexylamino)-3-(quinazolin-6-ylamino)pyrazine-2-carboxamide] | 1 to 10 nM |
| CC(C)C[C@@H](Nc1cnc(C(N)=O)c(Nc2cccc(-c3ccncc3)c2)n1)C(N)=O [Example 87, (R)-5-(1-amino-4-methyl-1-oxopentan-2-ylamino)-3-(3-(pyridin-4-yl)phenylamino)pyrazine-2-carboxamide] | 1 to 10 nM |
| CC[C@@H](Nc1cnc(C(N)=O)c(Nc2ccnc(OC3CCC3)c2)n1)C(N)=O [Example 354, (R)-5-(1-amino-1-oxobutan-2-ylamino)-3-(2-cyclobutoxypyridin-4-ylamino)pyrazine-2-carboxamide] | 1 to 10 nM |
| NC(=O)c1ncc(N[C@@H]2CCCC(F)(F)[C@@H]2N)nc1Nc1ccc2ncccc2c1 [Example 14, 5-((1R,2R)-2-amino-3,3-difluorocyclohexylamino)-3-(quinolin-6-ylamino)pyrazine-2-carboxamide] | 1 to 10 nM |
| NC(=O)c1ncc(N[C@@H]2CCCC(F)(F)[C@@H]2N)nc1Nc1ccc2ccncc2c1 [Example 385, 5-((1R,2R)-2-amino-3,3-difluorocyclohexylamino)-3-(isoquinolin-7-ylamino)pyrazine-2-carboxamide] | 1 to 10 nM |
| CC(C)(C)[C@@H](Nc1cnc(C(N)=O)c(Nc2cc(C3CC3)ns2)n1)C(N)=O [Example 244, (R)-5-(1-amino-3,3-dimethyl-1-oxobutan-2-ylamino)-3-(3-cyclopropylisothiazol-5-ylamino)pyrazine-2-carboxamide] | 1 to 10 nM |
| CC[C@@H](Nc1cnc(C(N)=O)c(Nc2cc(C(C)C)ns2)n1)C(N)=O [Example 240, (R)-5-(1-amino-1-oxobutan-2-ylamino)-3-(3-isopropylisothiazol-5-ylamino)pyrazine-2-carboxamide] | 10 to 100 nM |
| NC(=O)c1ncc(N[C@@H]2CCCC[C@@H]2N)nc1NC1CCOCC1 [Example 35, 5-((1R,2S)-2-aminocyclohexylamino)-3-(tetrahydro-2H-pyran-4-ylamino)pyrazine-2-carboxamide] | > 1000 nM |
| CN(C)C(=O)c1cccc(Nc2nc(N[C@@H]3CCCC[C@@H]3N)cnc2C(N)=O)c1 [Example 283, 5-((1R,2S)-2-aminocyclohexylamino)-3-(3-(dimethylcarbamoyl)phenylamino)pyrazine-2-carboxamide] | 10 to 100 nM |
| CC(=O)N1CC[C@@H](Nc2cnc(C(N)=O)c(Nc3cnc4ccccc4c3)n2)C1 [Example 110, (R)-5-((1-acetylpyrrolidin-3-yl)amino)-3-(quinolin-3-ylamino)pyrazine-2-carboxamide] | > 1000 nM |
| NC(=O)c1ncc(N[C@H](C2CC2)C2(N)CC2)nc1Nc1cccc(-c2ncccn2)c1 [Example 72, (R)-5-((1-aminocyclopropyl)(cyclopropyl)methylamino)-3-(3-(pyrimidin-2-yl)phenylamino)pyrazine-2-carboxamide] | 1 to 10 nM |
| NC(=O)c1ncc(N[C@@H]2CCCC[C@@H]2N)nc1Nc1cncc(C(F)(F)F)c1 [Example 197, 5-((1R,2S)-2-aminocyclohexylamino)-3-(5-(trifluoromethyl)pyridin-3-ylamino)pyrazine-2-carboxamide] | 1 to 10 nM |
| NC(=O)c1ncc(N[C@@H]2CCCC[C@@H]2N)nc1Nc1snc2ncccc12 [Example 412, 5-((1R,2S)-2-aminocyclohexylamino)-3-(isothiazolo[3,4-b]pyridin-3-ylamino)pyrazine-2-carboxamide] | < 1 nM |
| CCc1cc(Nc2nc(N[C@@H]3CCCC(F)(F)[C@@H]3N)cnc2C(N)=O)ccn1 [Example 355, 5-((1R,2R)-2-amino-3,3-difluorocyclohexylamino)-3-(2-ethylpyridin-4-ylamino)pyrazine-2-carboxamide] | 10 to 100 nM |
| NC(=O)c1ncc(N[C@@H]2CCOC[C@@H]2N)nc1Nc1cccc(-n2nccn2)c1 [Example 81, 3-(3-(2H-1,2,3-triazol-2-yl)phenylamino)-5-((3R,4R)-3-aminotetrahydro-2H-pyran-4-ylamino)pyrazine-2-carboxamide] | < 1 nM |
| CC(=O)N1CC[C@@H](Nc2cnc(C(N)=O)c(Nc3ccc4ncccc4c3)n2)C1 [Example 111, (R)-5-((1-acetylpyrrolidin-3-yl)amino)-3-(quinolin-6-ylamino)pyrazine-2-carboxamide] | > 1000 nM |
| CC[C@@H](Nc1cnc(C(N)=O)c(Nc2ccc(N(C)C)nc2)n1)C(N)=O [Example 310, (R)-5-(1-amino-1-oxobutan-2-ylamino)-3-(6-(dimethylamino)pyridin-3-ylamino)pyrazine-2-carboxamide] | 10 to 100 nM |
| Cc1ccc(Nc2nc(N[C@@H]3CCOC[C@@H]3N)cnc2C(N)=O)cc1 [Example 78, 5-((3R,4R)-3-aminotetrahydro-2H-pyran-4-ylamino)-3-(p-tolylamino)pyrazine-2-carboxamide] | 1 to 10 nM |
| NC(=O)c1ncc(N[C@@H]2CCCC(F)(F)[C@@H]2N)nc1Nc1cc(C2CC2)ns1 [Example 242, 5-((1R,2R)-2-amino-3,3-difluorocyclohexylamino)-3-(3-cyclopropylisothiazol-5-ylamino)pyrazine-2-carboxamide] | 1 to 10 nM |
| Cc1cc(Nc2nc(N[C@H](CC3CC3)C(N)=O)cnc2C(N)=O)ccn1 [Example 101, (R)-5-(1-amino-3-cyclopropyl-1-oxopropan-2-ylamino)-3-(2-methylpyridin-4-ylamino)pyrazine-2-carboxamide] | 1 to 10 nM |
| CC[C@@H](Nc1cnc(C(N)=O)c(Nc2ccc(-n3ccnc3)cc2)n1)C(N)=O [Example 80, (R)-3-(4-(1H-imidazol-1-yl)phenylamino)-5-(1-amino-1-oxobutan-2-ylamino)-pyrazine-2-carboxamide] | 1 to 10 nM |

Reference: patent US9359308B2, “Pyrazine kinase inhibitors” (Portola Pharmaceuticals, Inc., priority 2011, dated 2016)
